The text below walks through data of US9817000B2, “Method for identifying compounds that modulate a T2R taste receptor” (The Regents of the University of California, priority 1999, dated 2017).

In the experiment the target is T1, mT2R5 coupling to Gαs, Gαi, Gαq or Gαo (Mus musculus, UniProt Q9JKT4).
T1 construct: infectious Bacmid containing rhodopsin tagged mT2R5 (DBA/2-allele) was produced using the Bac-to-Bac system; rhodopsin tag (rho); made in house; host or cells: insect larval cells infected with recombinant Bacmid (Bac-to-Bac); membrane preparation
T1 sequence (Q9JKT4 1-300): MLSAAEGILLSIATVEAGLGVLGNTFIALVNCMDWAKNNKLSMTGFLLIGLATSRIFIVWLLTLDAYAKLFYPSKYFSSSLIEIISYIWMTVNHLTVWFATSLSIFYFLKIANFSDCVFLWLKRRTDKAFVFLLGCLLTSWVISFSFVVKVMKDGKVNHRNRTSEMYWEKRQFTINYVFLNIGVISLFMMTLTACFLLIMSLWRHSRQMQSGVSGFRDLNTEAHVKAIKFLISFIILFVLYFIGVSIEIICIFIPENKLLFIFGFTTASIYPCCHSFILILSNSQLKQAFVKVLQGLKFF
As to the kind of experiment: Tastant-induced GTPγS binding to other G-protein α-subunits with mT2R5 membranes. It is filed as biochemical. As for the experimental part:
To investigate the selectivity of T2R-G-protein coupling, mT2R5 was chosen for study because its activation by cycloheximide recapitulates mouse taste responses. Rho-tagged mT2R5 and gustducin were prepared using a baculovirus expression system. mT2R5-containing membranes were incubated with various purified G-proteins, including gustducin, and measured tastant-induced GTP-γS binding (Hoon et al., Biochem J 309:629-636 (1995)). Specifically, infectious Bacmid containing rhodopsin tagged mT2R5 (DBA/2-allele) was produced using the Bac-to-Bac system (Lifetechnologies, MD). Insect larval cells were infected for 60 h with recombinant Bacmid and membranes were prepared as described previously (Ryba and Tirindelli, J Biol Chem, 270:6757-6767 (1995)). Peripheral proteins were removed by treatment with 8 M urea and membranes were resuspended in 10 mM HEPES pH7.5, 1 mM EDTA and 1 mM DTT. The expression of rho-mT2R5 was assessed by Western blot using mAb B6-30 and quantitated by comparison with known amounts of rhodopsin. Approximately 300 pmol of rho-mT2R5 could be obtained from 2×10^8 infected cells. […] Receptor-catalyzed exchange of GDP for GTPγS on gustducin and other G-protein α-subunits was measured in the presence of 10 nM rho-mT2R5, 100 μM GDP, and 20 μM Gβ1γ8. […]
(In general: Binding of GTPγS marks nucleotide exchange on a G protein.)

Each structure is given as a SMILES string.

`C[C@@H]1C[C@@H]([C@H](O)CC2CC(=O)NC(=O)C2)C(=O)[C@@H](C)C1` [cycloheximide]: the “coupling of mT2R5 to other G-proteins” value is listed as “no coupling”.
